# Article PMC7417534, “Cytochrome P450 inhibition potential and initial genotoxic evaluation of 14-O-[(4,6-diaminopyrimidine-2-yl)thioacetyl] mutilin” (Scientific Reports, 2020)
# Like-named read-outs stand apart in the source and are kept apart here.
# What was measured:
# [1] = tested on: S. typhimurium strains TA97, TA98, TA100, TA102 and TA1535; experiment: Ames test, overall verdict over five strains; type: cell-based, Salmonella typhimurium; conditions: with or without S9, up to 3.98 μmol/plate
# Description: (§1) S. typhimurium strains TA97, TA98, TA100, TA102 and TA1535 were stored and maintained as provided in the standard protocol. Each of the strains was checked for their genetic integrity prior to the experiment, and tested for biotin dependence, histidine dependence, biotin and histidine dependence, rfa marker (crystal violet) and presence of the plasmid pKM101 (ampicillin resistance) or pAQ1 (tetracycline resistance). Different strains were used to identify different types of mutations.
# The test was carried out at five different concentrations of DPTM. […] Then 1 mL solution was diluted with distilled water by two fold. […] The negative control used in this experiment was 1 mL DMSO which was directly incorporated into 9 mL melted top agar.
# The Ames test of DPTM was conducted as described in the literatures[42],[43] with some modifications. Briefly, 1 mL of strain was inoculated into 5 mL of nutrient broth, followed by incubating overnight at 37 °C. The mixture comprised respective strains, drug, negative and positive controls with the S9 for testing in the presence of metabolic activation system. For testing without S9, 1 × phosphate buffer saline (PBS, pH 7.4) replaced the S9 mix. The obtained mixtures were added into the tube, mixed well and incubated at 37 °C for 20 min. […] The results were expressed as the number of revertant colonies per plate. […]
# [2] = tested on: CYP2E1 mRNA; experiment: CYP2E1 mRNA expression in Hep G2 cells (real-time PCR); type: cell-based, human
# Experimental: (§2) The logarithmic growth phase Hep G2 cells were seeded into 12-well plastic plates at a density of […]. After incubation at 37 °C under 5% CO2 for 24 h, the media were then replaced with 1 mL of serial dilutions of the DPTM (4.98, 0.16 and 0.08 mM) in fresh media. When cells were incubated for 2, 4 and 12 h at 37 °C under 5% CO2, the RNA was isolated using the Trizol reagent according to the manufacturer’s protocol. Total RNA (5 μL) was transcribed into cDNA by using the PrimeScript RT reagent Kit (Perfect Real Time). The obtained cDNA (5 μL) was added for 45 cycles of PCR amplification to detect the mRNA expression (the primers and sequences used herein were given in Table 3) using the ABI Villa TM7Dx real-time PCR system (Gaithersburg, USA). Glyceraldehyde-3-phosphate dehydrogenase (GAPDH) was used as reference gene. All reactions were performed in a final volume of 20 μL (10 μL of 2 × SYBR Green Real-time PCR Master Mix, 2 μL of cDNA and 2 μL of the primers and 6 μL DEPC water) and executed in triplicate.
# [3] = tested on: AhR mRNA; experiment: AhR mRNA expression in Hep G2 cells (real-time PCR); type: cell-based, human
# Experimental: as §2
# [4] = tested on: S. typhimurium TA102; conditions: − S9
# Description: as §1
# The test was carried out at five different concentrations of DPTM. […] Then 1 mL solution was diluted with distilled water by two fold.
# The Ames test of DPTM was conducted as described in the literatures[42],[43] with some modifications. Briefly, 1 mL of strain was inoculated into 5 mL of nutrient broth, followed by incubating overnight at 37 °C. The mixture comprised respective strains, drug, negative and positive controls with the S9 for testing in the presence of metabolic activation system. For testing without S9, 1 × phosphate buffer saline (PBS, pH 7.4) replaced the S9 mix. The obtained mixtures were added into the tube, mixed well and incubated at 37 °C for 20 min. Then, the top agar was melted and 2 mL of this melted top agar was added to each tube and gently mixed. […] The results were expressed as the number of revertant colonies per plate. The experiments were performed in triplicate.
# [5] = biological target: T1, CYP1A2 (Rattus norvegicus, UniProt P04799); experiment: Cocktail CYP inhibition in rat liver microsomes, CYP1A2 (phenacetin); type: in vitro ADME; conditions: cocktail method, read-out: IC50 values, CYP1A2 in RLMs
# T1 construct: containing 100 μL RLMs or HLMs; tissue Research Institute for Liver Diseases (Shanghai) Co., Ltd; host or cells: male SD rat liver microsomes
# Experimental: (§3) We used the cocktail method to study the inhibition activities of DPTM against CYP enzymes in RLMs and HLMs with slight modification. DPTM (250 μmol) was dissolved in 1.25 mL methanol to a solution and then diluted with methanol and water to 2, 10, 20, 100, 200, 400, 1,000 and 2000 μM, respectively. The obtained serial dilutions (10 μL) were added to the incubation mixtures (200 μL total volume), containing 100 μL RLMs or HLMs (final concentration was 5 μg/μL, respectively), 10 μL glucose-6-phosphate (final concentration was 1 mM), 10 μL glucose-6-phosphate dehydrogenase (final concentration was 0.1 U/L), 20 μL potassium phosphate buffer (final concentration was 0.01 M) and 20 μL MgCl2 (final concentration was 2 mM), to give the final concentrations were 0.1, 0.5, 1, 5 10, 20, 50, and 100 μM, respectively. For the groups that in the absence of DPTM, 10 μL methanol (1%) replaced the DPTM and was added to the incubation mixtures. […] The final concentration of methanol in all the incubation mixtures, including the blank group, was […]. […] The determined metabolic substrates were used for calculating the relative enzyme activity (Erel) by the following formula: Erel (%) = Ci(n)/Ci(0) × 100%, in which Ci(n) was the determined metabolic substrates in the presence of varying concentrations of DPTM and Ci(0) was the determined metabolic substrates in the absence of DPTM. […]
# [6] = tested on: PXR mRNA; experiment: PXR mRNA expression in Hep G2 cells (real-time PCR); type: cell-based, human; conditions: 4 and 12 h, three doses
# Experimental: as §2
# [7] = biological target: T2, CYP2D6 (Homo sapiens, UniProt P10635); experiment: Cocktail CYP inhibition in human liver microsomes, CYP2D6 (metoprolol); type: in vitro ADME; conditions: cocktail method, read-out: IC50 values, CYP2D6 in HLMs
# T2 construct: containing 100 μL RLMs or HLMs; tissue Research Institute for Liver Diseases (Shanghai) Co., Ltd; host or cells: pooled human liver microsomes
# Experimental: as §3
# [8] = tested on: CYP3A4 mRNA; experiment: CYP3A4 mRNA expression in Hep G2 cells (real-time PCR); type: cell-based, human; conditions: 2 and 4 h, 4.98, 0.16 and 0.08 mM
# Experimental: as §2
# [9] = tested on: CYP1A2 mRNA; experiment: CYP1A2 mRNA expression in Hep G2 cells (real-time PCR); type: cell-based, human
# Experimental: as §2
# [10] = biological target: T3, CYP3A4 (Homo sapiens, UniProt P08684); experiment: Cocktail CYP inhibition in human liver microsomes, CYP3A4 (dapsone); type: in vitro ADME; conditions: cocktail method, read-out: IC50 values, CYP3A4 in HLMs
# T3 construct: containing 100 μL RLMs or HLMs; tissue Research Institute for Liver Diseases (Shanghai) Co., Ltd; host or cells: pooled human liver microsomes
# Experimental: as §3
# [11] = tested on: CYP2C9 mRNA; experiment: CYP2C9 mRNA expression in Hep G2 cells (real-time PCR); type: cell-based, human; conditions: 2 and 4 h, 4.98, 0.16 and 0.08 mM
# Experimental: as §2
# [12] = tested on: CYP2D6 mRNA; experiment: CYP2D6 mRNA expression in Hep G2 cells (real-time PCR); type: cell-based, human; conditions: 12 h
# Experimental: as §2
# [13] = 2 and 4 h, 4.98, 0.16 and 0.08 mM
# T2 sequence (P10635 whole entry): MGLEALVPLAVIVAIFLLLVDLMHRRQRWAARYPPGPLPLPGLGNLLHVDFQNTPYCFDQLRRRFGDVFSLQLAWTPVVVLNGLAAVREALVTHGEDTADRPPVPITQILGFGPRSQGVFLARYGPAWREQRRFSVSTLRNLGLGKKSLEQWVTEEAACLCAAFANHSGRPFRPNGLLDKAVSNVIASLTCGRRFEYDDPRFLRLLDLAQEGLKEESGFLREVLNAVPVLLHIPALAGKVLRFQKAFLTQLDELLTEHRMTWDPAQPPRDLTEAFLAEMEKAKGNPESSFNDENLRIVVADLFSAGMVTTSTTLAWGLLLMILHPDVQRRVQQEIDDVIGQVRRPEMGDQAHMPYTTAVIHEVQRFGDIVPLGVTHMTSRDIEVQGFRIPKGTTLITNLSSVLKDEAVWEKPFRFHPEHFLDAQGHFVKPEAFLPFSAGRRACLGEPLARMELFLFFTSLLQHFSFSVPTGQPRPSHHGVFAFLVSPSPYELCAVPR
# T1 sequence (P04799 whole entry): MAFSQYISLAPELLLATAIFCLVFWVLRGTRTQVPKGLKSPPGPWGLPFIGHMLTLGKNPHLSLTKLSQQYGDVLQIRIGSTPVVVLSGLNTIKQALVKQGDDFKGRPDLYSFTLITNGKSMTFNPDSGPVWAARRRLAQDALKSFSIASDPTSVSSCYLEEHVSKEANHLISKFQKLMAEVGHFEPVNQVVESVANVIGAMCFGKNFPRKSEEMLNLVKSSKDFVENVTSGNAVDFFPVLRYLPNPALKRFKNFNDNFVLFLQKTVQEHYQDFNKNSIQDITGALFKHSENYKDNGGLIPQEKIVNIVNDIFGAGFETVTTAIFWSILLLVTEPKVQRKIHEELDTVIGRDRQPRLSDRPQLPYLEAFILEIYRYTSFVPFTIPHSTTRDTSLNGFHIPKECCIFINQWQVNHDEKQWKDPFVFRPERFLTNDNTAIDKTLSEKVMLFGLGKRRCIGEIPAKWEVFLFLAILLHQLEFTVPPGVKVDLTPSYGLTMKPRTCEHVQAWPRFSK
# T3 sequence (P08684 whole entry): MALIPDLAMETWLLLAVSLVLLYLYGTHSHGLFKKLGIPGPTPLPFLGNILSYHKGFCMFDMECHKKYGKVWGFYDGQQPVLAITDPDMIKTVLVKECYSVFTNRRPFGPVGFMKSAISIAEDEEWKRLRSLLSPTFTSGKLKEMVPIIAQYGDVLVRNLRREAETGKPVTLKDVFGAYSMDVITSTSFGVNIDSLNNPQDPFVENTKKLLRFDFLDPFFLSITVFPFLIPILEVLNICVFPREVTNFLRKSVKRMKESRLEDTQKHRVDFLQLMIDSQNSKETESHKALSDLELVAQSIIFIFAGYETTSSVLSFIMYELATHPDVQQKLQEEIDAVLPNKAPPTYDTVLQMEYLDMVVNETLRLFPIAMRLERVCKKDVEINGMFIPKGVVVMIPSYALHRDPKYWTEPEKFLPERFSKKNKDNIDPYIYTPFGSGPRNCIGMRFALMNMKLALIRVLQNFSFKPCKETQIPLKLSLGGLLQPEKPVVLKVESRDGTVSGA
compound,measurement,setting,value
"C=CC1(C)CC(OC(=O)CSc2nc(N)cc(N)n2)C2(C)C(C)CCC3(CCC(=O)C32)C(C)C1O (stereo not shown) [DPTM, 14-O-[(4,6-Diaminopyrimidine-2-yl)thioacetyl] mutilin]",mutagenicity verdict (Ames test),[1],should not be considered as a mutagen
same,CYP2E1 mRNA level versus control,"[2]; 4 h, three doses",no significantly difference
same,CYP2E1 mRNA expression versus control,[2]; 12 h,significantly lowered
same,AhR mRNA content versus control,[3]; [13],significantly increased
same,AhR mRNA content versus control,[3]; 12 h,no effect
same,"revertant colonies per plate, TA102",[4]; dose 0.25 μmol/plate,256 ± 20 CFU
same,"revertant colonies per plate, TA102",[4]; dose 0.50 μmol/plate,241 ± 10 CFU
same,"revertant colonies per plate, TA102",[4]; dose 1.00 μmol/plate,260 ± 17 CFU
same,"revertant colonies per plate, TA102",[4]; dose 1.99 μmol/plate,264 ± 15 CFU
same,"revertant colonies per plate, TA102",[4]; dose 3.98 μmol/plate,268 ± 12 CFU
same,IC50,[5],> 100 µM
same,PXR mRNA expression versus control,[6],significantly increased
same,IC50,[7],> 100 µM
same,CYP3A4 mRNA expression versus control,[8],significantly increase
same,CYP1A2 mRNA expression versus control,[9]; [13],significantly increase
same,CYP1A2 mRNA expression versus control,[9]; 12 h,significantly lowered
same,IC50,[10],8 ± 2 µM
same,CYP2C9 mRNA expression versus control,[11],significantly increase
same,CYP2D6 mRNA expression versus control,[12],significantly lowered
